In patent US20130195956A1, “Transdermal Hormone Delivery” (Agile Therapeutics, Inc., priority 2012, published 2013):
Several values for one entry are separate records, joined by “and”; a condition that tells them apart may be missing. Equal entries are not always repeated.

Key:
[1] = cited from earlier work
[2] = Slide and patch crystallization studies for saturation solubility in adhesives and additives; type: physicochemical
Description: Drug in adhesive transdermal patches were prepared as follows. Predetermined amounts of drug, adhesive, ethyl acetate and/or additives (copovidone/mineral oil) were weighed into a glass container with lid and sealed using a parafilm to minimize loss of organic solvents. The formulation was stirred for 2 hours using a magnetic stirrer to form a homogenous mixture. The mixture was then cast on a release liner (3 mil fluoropolymer coated polyester film, Scotchpak™ 9744 from 3M) using a Gardner film casting knife (BYK-AG-4300 series, Columbia, Md., USA) and the cast sheet was dried in an oven at 60° C. for 17 minutes. Thereafter, the entire sheet was laminated using a backing membrane (2 mil polyester with an ethylene vinyl acetate copolymer, Scotchpak™ 9732 from 3M), which was placed on the cast film using a roller, ensuring no air pockets were formed. […]
The three different adhesives that were investigated for the preparation of desogestrel transdermal patches were two acrylate adhesives, Duro-Tak 87-4098 and Duro-Tak 87-202A, and one PIB adhesive, Duro-Tak 87-608A. […] The saturation solubility of desogestrel in these adhesives was determined using the slide method discussed earlier as well as crystallization studies on complete patches. […]

[3] = 7 day in vitro skin permeation, Franz diffusion cells, hairless rat abdominal skin; conditions: for average cumulative amount permeated at the end of 7 days: donor: saturated solution in PEG-400, FIG. 6
Description: Skin was isolated from hairless rats (male, 8-10 weeks old and 350-400 g in weight) that were obtained from Charles River (Wilmington, Mass., USA). All the animals were allowed to acclimate for at least 1 week prior to their use in any experiment. […] Hairless rats were euthanized by carbon dioxide asphyxiation prior to the permeation experiment and abdominal skin was carefully excised using a pair of scissors and forceps. The underlying subcutaneous fat was removed from the excised skin and the abdominal skin thus obtained (˜1 mm thick) was used for the permeation experiments.
The 7 day permeation studies were performed using in vitro Franz diffusion cells (PermeGear, Inc., Hellertown, Pa., USA) having an effective diffusion surface area of 0.64 cm^2 (n≧3). […] These served as corresponding donor solutions. The receptor phase consisted of PEG 400 having gentamycin sulfate (80 mg/L). Gentamycin sulfate was added to the receptor phase to prevent microbial growth during the 7 day study. During the entire study, the receptor phase was maintained at 37° C. with constant stirring at 600 rpm. Freshly excised and cleaned hairless rat abdominal skin was obtained on the day of the experiment. This isolated skin was placed in between the donor and the receptor compartments and the entire set up was then secured in place using a clamp. Donor solution (0.5 ml) was then loaded into the donor cells using a pipette and the top was covered using parafilm and a silver foil. […] The only difference was that instead of using the saturated desogestrel solution as donor, desogestrel containing patches were used. Transdermal patches, large enough to cover the receptor compartment top, were cut out of the cast sheets, the release liner was removed and the patches were placed on the skin such that the adhesive side of the patch was facing the stratum corneum side of the skin. The donor cell was then placed and the entire set up was secured using a clamp. All samples obtained were analyzed using HPLC.
Analysis of the amount of drug in the samples was performed using a chromatographic method described in the literature with few modifications. […] Phenomenex RP C6 Luna 5μ column (Phenomenex, Torrance, Calif.) set at 35° C. was employed for gradient elution method. The mobile phase consisted of methanol and water. The gradient method was initiated with the use of a 70:30 (methanol:water) solution, followed by a change of the mobile phase composition to 100% methanol over the next 7 minutes. This methanol:water (100:0) composition was maintained till the 10th minute and then the mobile phase composition was changed again to a composition of 70:30 (methanol:water) by the 12th min. The run time of each injection was 15 minutes and the injection volume was 100 μl. The flow rate of the mobile phase throughout the run was 1.5 ml/min. […] The standard curve was linear over the range of 0.5-100 μg.
Student t-test and analysis of variance (ANOVA) were used to determine statistically significant differences. The p-value used in this study was 0.05.

[4] = Description: Sheets were cast with the blend shown in Table 1 and dried for 17 minutes at 60 degrees Centigrade. Drying was followed by lamination to a polyester backing membrane and circular cutting of individual patches. The dry formulation of the patches is shown in the second column of Table 1.
[5] = Skin permeation of LNG from LNG/EE patches with four enhancers, Franz diffusion cells, human skin compared with rat skin; type: in vitro ADME; conditions: patches of Example 1 with four skin permeation enhancers; FIGS. 1-4
Description: A skin permeation experiment for the delivery of LNG from the patches prepared in Example 1 was performed (n=3). Three separate patches were cut to appropriate size such that they would cover the top of the receptor compartment of a Franz skin diffusion cell (exposed surface area of 0.64 cm^2). Hairless rat skin was freshly excised before the permeation experiment. PBS (0.1×) having 80 mg/L gentamycin sulfate and 0.5% Volpo was used as the receptor buffer (pH 7.2). Samples (0.5 ml) were taken at predetermined time points (3 hr, 6 hr, 12 hr, 24 hr, 2nd, 3rd, 4th, 5th, 6th and 7th day) and were analyzed for LNG levels using High Pressure Liquid Chromatography (HPLC).
The average flux (FIG. 1) and the cumulative amount (FIG. 2) of LNG that permeated across the hairless rat skin, during a period of four days, were determined and are shown below. In addition, patches manufactured using production equipment under the same processes and containing exactly the same amounts and ingredients as the pilot patches mentioned in Example 1 were used for comparison.
The above studies were performed using rat skin, which, for many drugs, is known to have similar permeation characteristics as human skin. […]

[6] = general statement in description

saturation solubility in PIB adhesive (Duro-Tak 87-608A) ([2]; slides and patches)	saturation solubility in copovidone (Plasdone S-630) ([2]; slides, drug:copovidone w/w ratios, up to 6 months)	average cumulative amount permeated at the end of 7 days ([3]; hairless rat skin)	skin permeation relative to ethinyl estradiol [3, 6]	skin permeation relative to levonorgestrel [3, 6]	average cumulative amount and flux from saturated PEG solution compared with optimized patches ([3]; p<0.05, hairless rat skin)	average flux and cumulative amount compared with levonorgestrel ([3]; saturated PEG-400 solutions, p<0.05, FIGS. 5 and 6)	saturation of the patch with the hormone [4]	permeation through rat skin compared with permeation through human skin [5]	SMILES	logP [1]
3-4 % w/w	70-80 % w/w and 70 % w/w	389.4±6.2 μg/sq.cm	higher	approximately ten-fold higher	significantly higher	significantly higher			C#C[C@]1(O)CC[C@H]2[C@@H]3CCC4=CCCC[C@@H]4[C@H]3C(=C)C[C@@]21CC [desogestrel]	4
							22%		C#C[C@]1(O)CC[C@H]2[C@@H]3CCc4cc(O)ccc4[C@H]3CC[C@@]21C [ethinyl estradiol]	
		1.8±0.1 μg/sq.cm						very similar	C#C[C@]1(O)CC[C@H]2[C@@H]3CCC4=CC(=O)CC[C@@H]4[C@H]3CC[C@@]21CC [levonorgestrel]	3.8
